Article PMC6418270, “The pharmacological and functional characterization of the serotonergic system in Anopheles gambiae and Aedes aegypti: influences on flight and blood-feeding behavior” (Scientific Reports, 2019)
Counter-ions that a name gives are not always drawn.

Legend:
Ae. aegypti [1] = assay: Blood-feeding assay (artificial membrane feeder) after microinjection; format: in vivo, Aedes aegypti; conditions: 1 mM microinjected
Description: (§1) Stock solutions of the compounds were diluted to the appropriate concentrations in 1X phosphate buffer solution (PBS). To account for potential solvent effects, an ultrapure H2O control group was included in every independent experiment. Female mosquitoes were either cold- or CO2-anesthetized. A Nanoject II Auto-Nanoliter Injector (Drummond Scientific Company, Broomall, PA) was then utilized to microinject 69 nL of compound into the spiracle.
Seven to ten-day old female mosquitoes were treated with compound or appropriate control through microinjection post cold-anesthetization or ingestion. Two mL of human O^+ blood (BioChemed Services, Winchester, VA) was utilized to cover the concave surface of an inverted baby food jar. Hog intestine sealed the opening to simulate the puncturing of a host’s skin. The feeding membrane was placed on the top of a mosquito cage, and hot water was poured into the jar to warm the blood. After a 45-minute feed, the mosquitoes were immediately preserved at −20 °C. The blood meal size was determined for each mosquito via hemoglobinometry as previously described.
(§2) Luminescence and calcium assay data were normalized and fitted with a non-linear least squares regression to generate dose-response curves, EC50 and IC50 values. Unpaired t-tests or Dunnett’s multiple comparisons test were performed accordingly to compare EC50 or IC50 values. Locomotion was measured based on the distance required for flight recovery. Data were compared with the Kruskal-Wallis and Dunnett’s multiple comparison tests after the Kolmogorov-Smirnov normality test was conducted. In the blood-feeding experiments, the percentage of blood-fed mosquitoes was calculated for each treatment group. For each biological replicate, the treatment groups were normalized with respect to the untreated group. Dunnett’s multiple comparison tests were utilized to determine statistical difference between normalized data. Size of bloodmeals were compared with an unpaired t-test or Mann-Whitney test after normality was evaluated with the Kolmogorov-Smirnov test. All analyses were performed utilizing GraphPad Prism version 7.00 for Mac OS X, GraphPad Software, La Jolla California USA, www.graphpad.com.

Ae. aegypti [2] = assay: Flight performance in flight cylinder after microinjection; format: in vivo, Aedes aegypti; conditions: for Distance average in flight cylinder: Fig. 5d; for Average distance dropped before landing on flight cylinder: Fig. 5b
Description: as §1
A flight cylinder was assembled as described previously. The polyacrylamide sheet was coated with Tangle-Trap Sticky Coating (The Scotts Company LLC, Marysville, OH) and allowed to sit overnight before insertion into the flight cylinder. Adult mosquitoes were anesthetized on a CO2 pad and microinjected with the compound or ultrapure H2O control. Post-injection, they were permitted to recover in a fly vial for 30 minutes before being ejected into the flight cylinder. After each trial, the distance between the top of the cylinder and the trapped mosquito was recorded. Mosquitoes captured in the fly vial at the bottom of the cylinder were considered to be incapable of flying and a distance of 91.5 cm was recorded.
as §2

D. melanogaster = tested on: D. melanogaster; design: method as in PMID 26989517, PMID 24586928; conditions: larval and adult; cited from earlier work
AGAP002232 = AGAP002232 (Anopheles gambiae, UniProt A0A1S4GEY1); assay: Fluo-4 calcium assay in CRE-luc2P HEK-293 cells expressing AGAP002232; format: cell-based
Sequence of AGAP002232 (A0A1S4GEY1 entry or part of it): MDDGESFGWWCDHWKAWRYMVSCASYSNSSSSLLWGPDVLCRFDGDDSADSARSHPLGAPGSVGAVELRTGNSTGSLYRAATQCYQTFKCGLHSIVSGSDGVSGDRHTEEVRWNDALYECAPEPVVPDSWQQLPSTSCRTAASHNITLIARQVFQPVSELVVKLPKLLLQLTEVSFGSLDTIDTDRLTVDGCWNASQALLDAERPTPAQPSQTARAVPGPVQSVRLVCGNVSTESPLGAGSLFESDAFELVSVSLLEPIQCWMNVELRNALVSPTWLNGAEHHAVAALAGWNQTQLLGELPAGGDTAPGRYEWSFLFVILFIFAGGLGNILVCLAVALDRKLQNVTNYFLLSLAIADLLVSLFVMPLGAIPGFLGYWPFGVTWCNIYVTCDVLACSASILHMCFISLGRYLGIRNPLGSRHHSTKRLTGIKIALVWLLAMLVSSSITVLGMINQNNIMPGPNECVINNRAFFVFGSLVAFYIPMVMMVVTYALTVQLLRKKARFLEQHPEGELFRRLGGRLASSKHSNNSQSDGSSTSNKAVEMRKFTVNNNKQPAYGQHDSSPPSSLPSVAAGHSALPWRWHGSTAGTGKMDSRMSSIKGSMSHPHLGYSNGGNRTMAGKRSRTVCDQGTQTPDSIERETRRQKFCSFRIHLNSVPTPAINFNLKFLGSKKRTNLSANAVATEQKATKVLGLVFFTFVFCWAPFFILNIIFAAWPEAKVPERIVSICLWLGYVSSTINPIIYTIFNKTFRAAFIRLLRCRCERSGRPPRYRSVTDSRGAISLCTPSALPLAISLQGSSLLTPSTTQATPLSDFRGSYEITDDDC
Description: The GloResponse™ CRE-luc2P human embryonic kidney (HEK-293) reporter cells were incubated at 37 °C with an atmosphere of 5% CO2, and maintained in Dulbecco’s Modified Eagle Medium (DMEM) supplemented with 10% fetal bovine serum (FBS) and […] hygromycin B. Transfection of the HEK-293 cells with 1 μg of plasmid DNA was performed with Amaxa Nucleofector™ technology (Lonza, Basel, Switzerland) as per manufacturer’s instructions. A week post-transfection, selective pressure was applied with […] of G418 antibiotic to generate stable lines.
(§3) 1 × 10^6 cells per well were seeded into a 96-well black all-clear bottom plate and incubated overnight in 10% FBS/90% DMEM at 37 °C with an atmosphere of 5% CO2. The following day, 2X Fluo-4 Direct calcium dye (Molecular Devices LLC, San Jose, CA) was added to each well and incubated in the same conditions for 45 minutes before the assay was completed. At this time, serial dilutions of the test compounds were prepared in a 96-well clear flat bottom plate. Fluorescence levels were determined with a FlexStation3 microplate reader, with excitation and emission wavelengths set to 485 and 525 nm, respectively (Molecular Devices LLC). Basal fluorescence levels were measured for 17 seconds, at which time, 25 μl of the agonist compound was added. Fluorescence measurements continued to be recorded for a total of 120 seconds at 2-second intervals. When testing antagonists, cells were treated with the compound prior to determination of fluorescence levels.
as §2

[3] = tested on: D1-like dopamine receptors; conditions: cited from earlier work
[4] = tested on: octopamine receptor (AGAP000045); assay: Inhibition in HEK-293 cells expressing an octopamine receptor; format: cell-based, Anopheles gambiae
D. melanogaster larvae = tested on: D. melanogaster larvae; design: method as in PMID 23817146; conditions: cited from earlier work
AGAP002229 = AGAP002229 (Anopheles gambiae, UniProt A7UR33); assay: Fluo-4 calcium assay in CRE-luc2P HEK-293 cells expressing AGAP002229; format: cell-based; conditions: antagonist test; receptor not given, taken as both 5-HT2 cell lines
Sequence of AGAP002229 (A7UR33 entry or part of it): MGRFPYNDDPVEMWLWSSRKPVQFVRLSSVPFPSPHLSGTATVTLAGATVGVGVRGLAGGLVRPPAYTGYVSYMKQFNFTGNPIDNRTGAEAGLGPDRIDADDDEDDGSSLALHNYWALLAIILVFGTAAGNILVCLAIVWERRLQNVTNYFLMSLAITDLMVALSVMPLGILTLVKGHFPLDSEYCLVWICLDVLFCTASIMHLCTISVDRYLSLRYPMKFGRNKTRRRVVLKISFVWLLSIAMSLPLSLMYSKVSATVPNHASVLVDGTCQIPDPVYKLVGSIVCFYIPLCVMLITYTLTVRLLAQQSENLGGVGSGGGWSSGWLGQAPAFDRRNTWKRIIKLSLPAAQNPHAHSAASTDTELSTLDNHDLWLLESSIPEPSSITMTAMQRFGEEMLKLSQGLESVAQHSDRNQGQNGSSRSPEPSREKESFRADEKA
Description: A week post-transfection, selective pressure was applied with […] of G418 antibiotic to generate stable lines.
as §3, with “Fluorescence levels were determined with a FlexStation3 microplate reader, with excitation and emission wavelengths set to 485 and 525 nm, respectively (Molecular Devices LLC). Basal fluorescence levels were measured for 17 seconds, at which time, 25 μl of the agonist compound was added.” left out
as §2

Row | IC50 (AGAP002232; read-out: IC50 (calcium response to 5-HT), AGAP002232 HEK-293 cells) | Lowest concentration exhibiting inhibitory effects (AGAP002232; receptor not given) | Structure (SMILES) | Successfully blood-fed, normalized to the untreated group (Ae. aegypti [1]) | Distance average in flight cylinder (Ae. aegypti [2]; 2.5 mM) | Distance average in flight cylinder (Ae. aegypti [2]; 4 mM) | Effect on locomotion (D. melanogaster) | Ability to inhibit activity in a dose-response manner (AGAP002232; antagonist test, receptor not given, taken as both 5-HT2 cell lines) | Inhibition of D1-like dopamine receptors [3] | Inhibitory effect on octopamine receptor ([4]; 10^−4 M) | Inhibitory effect on octopamine receptor ([4]; all other concentrations of the range 10^−10 to 10^−4 M) | Effect on feeding (D. melanogaster larvae) | Blood meal size (Ae. aegypti [1]) | Successful flights (Ae. aegypti [2]; 1 mM microinjected (69 nL)) | Average distance dropped before landing on flight cylinder (Ae. aegypti [2]; 1 mM) | Successful flights (Ae. aegypti [2]; 1.5 mM microinjected (69 nL)) | Average distance dropped before landing on flight cylinder (Ae. aegypti [2]; 1.5 mM) | Average distance in flight cylinder (Ae. aegypti [2]; 1.5 mM, Fig. 5c) | Successful flights (Ae. aegypti [2]; 2.5 mM microinjected (69 nL)) | Average distance dropped before landing on flight cylinder (Ae. aegypti [2]; 2.5 mM) | Ability to inhibit activity in a dose-response manner (AGAP002229)
1 | – | – | CNCCC(Oc1ccc(C(F)(F)F)cc1)c1ccccc1 (stereo not drawn) [fluoxetine, fluoxetine hydrochloride] | approximately 80% | 41.61 cm | 81.63 cm | repress locomotion | – | – | – | – | – | – | – | – | – | – | – | – | – | –
2 | 0.56 nM | 10^−16 M | CS(=O)(=O)O.CSc1ccc2c(c1)C(N1CCN(C)CC1)Cc1ccccc1S2 (stereo not drawn) [methiothepin, methiothepin mesylate salt] | 50.7% | – | – | – | exhibited the ability to inhibit activity in a dose-response manner | ability to inhibit D1-like dopamine receptors | marked inhibition | did not elicit a similar result | anorectic agent | 2.25 µL | 92% | 22.77 cm | 84% | 33.04 cm | 41.38 cm | 61% | 49.27 cm | exhibited the ability to inhibit activity in a dose-response manner
